Key:
[1] = Plasma half-life of compound was determined in rat; assay type: ADME, cell-free
Dipeptidyl peptidase 8 = Dipeptidyl peptidase 8 (Homo sapiens, UniProt Q6V1X1)
Dipeptidyl peptidase 9 = Dipeptidyl peptidase 9 (Homo sapiens, UniProt Q86TI2)
Dipeptidyl peptidase 2 = Dipeptidyl peptidase 2 (Homo sapiens, UniProt Q9UHL4)
Dipeptidyl peptidase 4 = Dipeptidyl peptidase 4 (Homo sapiens, UniProt P27487)
[2] = Oral bioavailability in rat; assay type: ADME, organism-based; conditions: in vivo
[3] = Plasma cearance of compound was determined in rat; assay type: ADME, organism-based; conditions: read-out: Clp

Dipeptidyl peptidase 4, sequence (P27487 whole entry): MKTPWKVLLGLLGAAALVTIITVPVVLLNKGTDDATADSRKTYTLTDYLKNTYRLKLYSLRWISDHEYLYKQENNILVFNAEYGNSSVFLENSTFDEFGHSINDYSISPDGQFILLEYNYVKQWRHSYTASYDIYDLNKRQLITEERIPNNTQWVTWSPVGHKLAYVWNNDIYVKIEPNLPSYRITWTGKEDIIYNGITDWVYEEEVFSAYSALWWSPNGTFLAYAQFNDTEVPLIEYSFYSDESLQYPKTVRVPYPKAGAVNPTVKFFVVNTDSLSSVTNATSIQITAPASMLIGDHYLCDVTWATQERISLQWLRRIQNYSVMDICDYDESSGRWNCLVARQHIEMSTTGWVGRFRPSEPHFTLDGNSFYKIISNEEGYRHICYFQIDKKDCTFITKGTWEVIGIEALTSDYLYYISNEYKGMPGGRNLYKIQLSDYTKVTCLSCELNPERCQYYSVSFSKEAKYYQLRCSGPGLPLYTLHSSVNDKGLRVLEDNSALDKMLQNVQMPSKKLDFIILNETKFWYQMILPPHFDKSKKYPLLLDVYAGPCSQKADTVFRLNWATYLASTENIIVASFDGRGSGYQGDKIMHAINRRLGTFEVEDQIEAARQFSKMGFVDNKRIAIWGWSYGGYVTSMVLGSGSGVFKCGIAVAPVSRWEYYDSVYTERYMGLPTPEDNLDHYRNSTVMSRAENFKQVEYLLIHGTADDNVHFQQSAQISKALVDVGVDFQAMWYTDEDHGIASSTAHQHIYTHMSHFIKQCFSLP
Dipeptidyl peptidase 9, sequence (Q86TI2 whole entry): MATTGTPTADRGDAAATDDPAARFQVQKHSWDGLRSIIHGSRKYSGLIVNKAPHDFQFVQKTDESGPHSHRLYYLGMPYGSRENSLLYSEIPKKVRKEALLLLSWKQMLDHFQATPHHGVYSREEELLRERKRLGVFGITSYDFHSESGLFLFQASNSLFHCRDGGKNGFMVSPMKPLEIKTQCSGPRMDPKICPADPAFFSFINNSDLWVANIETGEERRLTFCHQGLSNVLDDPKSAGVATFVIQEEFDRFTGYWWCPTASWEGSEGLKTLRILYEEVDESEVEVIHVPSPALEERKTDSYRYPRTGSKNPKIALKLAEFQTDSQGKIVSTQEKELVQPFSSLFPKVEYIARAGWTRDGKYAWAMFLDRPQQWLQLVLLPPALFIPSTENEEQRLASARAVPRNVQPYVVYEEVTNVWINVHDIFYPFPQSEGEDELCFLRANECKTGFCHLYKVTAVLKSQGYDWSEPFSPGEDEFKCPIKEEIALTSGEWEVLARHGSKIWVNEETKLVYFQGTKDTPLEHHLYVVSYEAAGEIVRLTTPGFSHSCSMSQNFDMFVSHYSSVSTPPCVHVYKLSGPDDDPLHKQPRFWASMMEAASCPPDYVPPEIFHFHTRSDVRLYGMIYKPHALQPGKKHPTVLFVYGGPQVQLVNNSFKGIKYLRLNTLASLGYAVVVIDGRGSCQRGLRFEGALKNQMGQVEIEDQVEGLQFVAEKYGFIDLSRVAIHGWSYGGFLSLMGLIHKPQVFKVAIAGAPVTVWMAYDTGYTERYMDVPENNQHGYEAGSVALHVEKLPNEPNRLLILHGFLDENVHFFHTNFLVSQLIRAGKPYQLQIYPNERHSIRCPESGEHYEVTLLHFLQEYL
Dipeptidyl peptidase 8, sequence (Q6V1X1 whole entry): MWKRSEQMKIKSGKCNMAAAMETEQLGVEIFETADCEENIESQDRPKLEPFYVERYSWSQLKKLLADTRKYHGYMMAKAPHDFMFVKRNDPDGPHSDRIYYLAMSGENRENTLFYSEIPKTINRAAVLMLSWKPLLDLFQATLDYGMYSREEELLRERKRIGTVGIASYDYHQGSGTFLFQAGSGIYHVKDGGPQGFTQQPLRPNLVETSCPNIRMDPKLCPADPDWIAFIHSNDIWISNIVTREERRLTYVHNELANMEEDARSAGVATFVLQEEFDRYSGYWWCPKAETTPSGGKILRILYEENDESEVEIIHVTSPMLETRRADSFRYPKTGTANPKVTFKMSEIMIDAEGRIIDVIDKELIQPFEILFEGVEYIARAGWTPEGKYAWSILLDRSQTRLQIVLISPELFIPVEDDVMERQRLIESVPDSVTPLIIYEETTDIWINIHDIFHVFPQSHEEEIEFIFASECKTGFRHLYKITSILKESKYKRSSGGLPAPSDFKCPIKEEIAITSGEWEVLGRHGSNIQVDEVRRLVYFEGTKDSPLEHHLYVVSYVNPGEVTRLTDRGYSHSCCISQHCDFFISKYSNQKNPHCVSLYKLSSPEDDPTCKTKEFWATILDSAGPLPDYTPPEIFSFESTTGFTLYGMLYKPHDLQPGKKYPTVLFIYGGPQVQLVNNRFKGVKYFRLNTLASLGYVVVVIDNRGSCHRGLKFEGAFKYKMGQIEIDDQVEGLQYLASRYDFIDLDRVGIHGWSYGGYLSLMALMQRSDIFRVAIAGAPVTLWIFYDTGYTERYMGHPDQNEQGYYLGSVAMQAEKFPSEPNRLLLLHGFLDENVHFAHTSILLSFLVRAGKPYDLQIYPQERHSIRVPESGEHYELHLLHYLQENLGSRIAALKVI

| Compound | half-life [1] | IC50 (Dipeptidyl peptidase 8) | IC50 (Dipeptidyl peptidase 9) | IC50 (Dipeptidyl peptidase 2) | IC50 (Dipeptidyl peptidase 4) | bioavailability [2] | clearance [3] |
| --- | --- | --- | --- | --- | --- | --- | --- |
| C[C@@H](c1ccc(-c2ccc(F)cc2)cc1)[C@H](N)C(=O)N1CC[C@H](F)C1.O=C(O)C(F)(F)F | 2.2 h |  |  |  |  |  |  |
| Cc1ccccc1-c1ccc([C@H](C)[C@H](N)C(=O)N2CC[C@H](F)C2)cc1 |  | > 100 µM | > 100 µM | 2.5 µM |  |  |  |
| COc1ccccc1-c1ccc([C@H](C)[C@H](N)C(=O)N2CC[C@H](F)C2)cc1 |  | > 100 µM | > 100 µM | 3.8 µM | 0.11 µM |  |  |
| C[C@@H](c1ccc(-c2cccnc2)cc1)[C@H](N)C(=O)N1CC[C@H](F)C1 |  | > 100 µM | > 100 µM | 4.8 µM | 0.11 µM |  |  |
| Cc1ccc(-c2ccc([C@H](C)[C@H](N)C(=O)N3CC[C@H](F)C3)cc2)cc1 |  |  | > 100 µM | 1.1 µM | 0.39 µM |  |  |
| C[C@@H](c1ccc(-c2cccc(-c3n[nH]c(O)n3)c2)cc1)[C@H](N)C(=O)N1CC[C@H](F)C1 |  |  |  | 1.1 µM | 0.095 µM |  |  |
| C[C@@H](c1ccc(-c2ccc(C(=O)O)cc2)cc1)[C@H](N)C(=O)N1CC[C@H](F)C1 |  | > 100 µM | > 100 µM | 8.6 µM | 0.37 µM |  |  |
| C[C@@H](c1ccc(-c2ccccc2Cl)cc1)[C@H](N)C(=O)N1CC[C@H](F)C1 |  | > 100 µM | > 100 µM | 0.38 µM | 0.086 µM |  |  |
| C[C@@H](c1ccc(-c2cccc(S(N)(=O)=O)c2)cc1)[C@H](N)C(=O)N1CC[C@H](F)C1 |  | > 100 µM | > 100 µM | 3.6 µM | 0.14 µM |  |  |
| C[C@@H](c1ccc(-c2ccccc2)c(F)c1)[C@H](N)C(=O)N1CC[C@H](F)C1 |  | > 100 µM | > 100 µM | 48 µM | 2 µM |  |  |
| C[C@@H](c1ccc(-c2cccc(S(C)(=O)=O)c2)cc1)[C@H](N)C(=O)N1CC[C@H](F)C1 |  |  |  | 2.9 µM | 0.11 µM |  |  |
| CCOC(=O)c1ccc(-c2ccc([C@H](C)[C@H](N)C(=O)N3CC[C@H](F)C3)cc2)cc1 |  | > 100 µM | > 100 µM | 0.12 µM | 0.44 µM |  |  |
| C[C@@H](c1ccc(-c2cccc(-c3nn[nH]n3)c2)cc1)[C@H](N)C(=O)N1CC[C@H](F)C1.O=C(O)C(F)(F)F | 0.3 h | > 100 µM |  | 2.9 µM | 0.006 µM | 3.5% | 132 mL/min/kg |
| C[C@@H](c1ccc(-c2cccc(-c3noc(C4CC4)n3)c2)cc1)[C@H](N)C(=O)N1CC[C@H](F)C1 |  |  | > 100 µM | 0.096 µM | 0.14 µM |  |  |
| C[C@@H](c1ccc(-c2cccc(-c3nnco3)c2)cc1)[C@H](N)C(=O)N1CC[C@H](F)C1 |  | > 100 µM | > 100 µM | 0.96 µM | 0.069 µM |  |  |
| C[C@@H](c1ccc(-c2cccc(C(N)=O)c2)cc1)[C@H](N)C(=O)N1CC[C@H](F)C1 |  |  |  | 0.82 µM |  |  |  |
| C[C@@H](c1ccc(-c2cccc(NS(=O)(=O)C(F)(F)F)c2)cc1)[C@H](N)C(=O)N1CC[C@H](F)C1 |  | > 100 µM |  | 1.3 µM | 0.027 µM |  |  |
| C[C@@H](c1ccc(F)cc1C(F)(F)F)[C@H](N)C(=O)N1CC[C@H](F)C1 |  | > 100 µM | > 100 µM | > 100 µM | 54 µM |  |  |
| C[C@@H](c1ccc(-c2ccc(S(C)(=O)=O)cc2)cc1)[C@H](N)C(=O)N1CC[C@H](F)C1 |  | > 100 µM | > 100 µM | 1.2 µM | 0.42 µM |  |  |
| C[C@@H](c1ccc(-c2cccc(-c3nc[nH]n3)c2)cc1)[C@H](N)C(=O)N1CC[C@H](F)C1 |  | > 100 µM | > 100 µM | 0.35 µM | 0.098 µM |  |  |
| COc1ccc(-c2ccc([C@H](C)[C@H](N)C(=O)N3CC[C@H](F)C3)cc2)cc1 |  |  | > 100 µM | 0.33 µM | 0.13 µM |  |  |
| C[C@@H](c1ccccc1)[C@H](N)C(=O)N1CCSC1 |  | > 100 µM | > 100 µM |  | 0.968 µM |  |  |
| C[C@@H](c1ccc(-c2cccc(-c3c[nH]c(O)n3)c2)cc1)[C@H](N)C(=O)N1CC[C@H](F)C1 |  |  |  | 0.83 µM | 0.11 µM |  |  |
| C[C@@H](c1ccc(-c2ccccc2C(F)(F)F)cc1)[C@H](N)C(=O)N1CC[C@H](F)C1 |  | > 100 µM | > 100 µM | 2.5 µM | 0.13 µM |  |  |
| CCOC(=O)c1cccc(-c2ccc([C@H](C)[C@H](N)C(=O)N3CC[C@H](F)C3)cc2)c1 |  | > 100 µM | > 100 µM | 0.49 µM | 0.075 µM |  |  |
| C[C@@H](c1ccc(-c2cccc(NS(C)(=O)=O)c2)cc1)[C@H](N)C(=O)N1CC[C@H](F)C1 |  | > 100 µM | > 100 µM | 0.25 µM | 0.15 µM |  |  |
| C[C@@H](c1ccc(Cl)cc1F)[C@H](N)C(=O)N1CC[C@H](F)C1 |  | > 100 µM | > 100 µM | 5.6 µM | 0.48 µM |  |  |
| C[C@@H](c1ccc(-c2ccc(NS(C)(=O)=O)cc2)cc1)[C@H](N)C(=O)N1CC[C@H](F)C1 |  | > 100 µM | > 100 µM | 1.8 µM | 0.71 µM |  |  |
| C[C@@H](c1ccc(-c2cccc(-n3cnnn3)c2)cc1)[C@H](N)C(=O)N1CC[C@H](F)C1 |  |  | > 100 µM | 0.87 µM | 0.14 µM |  |  |
| C[C@@H](c1ccc(-c2ccc(C(F)(F)F)cc2)cc1)[C@H](N)C(=O)N1CC[C@H](F)C1 |  |  | > 100 µM | 0.67 µM | 0.51 µM |  |  |

More lines, now with the values ahead:

| half-life [1] | IC50 (Dipeptidyl peptidase 8) | IC50 (Dipeptidyl peptidase 9) | IC50 (Dipeptidyl peptidase 2) | IC50 (Dipeptidyl peptidase 4) | bioavailability [2] | clearance [3] | Compound |
| --- | --- | --- | --- | --- | --- | --- | --- |
|  | > 100 µM |  | 11 µM | 1.1 µM |  |  | C[C@@H](c1ccc(F)c(F)c1)[C@H](N)C(=O)N1CC[C@H](F)C1 |
|  | > 100 µM | > 100 µM | 5.2 µM | 0.6 µM |  |  | C[C@@H](c1ccc(C(F)(F)F)cc1)[C@H](N)C(=O)N1CC[C@H](F)C1 |
|  |  |  | 5.2 µM | 2.8 µM |  |  | C[C@@H](c1ccc(F)c(Cl)c1)[C@H](N)C(=O)N1CC[C@H](F)C1 |
|  | > 100 µM | > 100 µM | 5.7 µM | 1.1 µM |  |  | C[C@@H](c1cccc(Cl)c1)[C@H](N)C(=O)N1CC[C@H](F)C1 |
|  | > 100 µM | > 100 µM | 5.9 µM | 0.17 µM |  |  | C[C@@H](c1ccc(Cl)cc1)[C@H](N)C(=O)N1CC[C@H](F)C1 |
|  | > 100 µM | > 100 µM | 28 µM | 7.9 µM |  |  | C[C@@H](c1ccc(N2CCCCC2)cc1)[C@H](N)C(=O)N1CC[C@H](F)C1 |
|  |  |  | 5.9 µM | 0.36 µM |  |  | CSc1ccc([C@H](C)[C@H](N)C(=O)N2CC[C@H](F)C2)cc1 |
|  |  | > 100 µM | 1.5 µM | 1.7 µM |  |  | C[C@@H](c1ccc(C(=O)[n+]2ccc[nH]2)cc1)[C@H](N)C(=O)N1CC[C@H](F)C1 |
|  | > 100 µM | > 100 µM | 3.6 µM | 0.25 µM |  |  | C[C@@H](c1ccc(Br)cc1)[C@H](N)C(=O)N1CC[C@H](F)C1 |
|  | > 100 µM | > 100 µM | 14 µM | 3.7 µM |  |  | C[C@@H](c1cccc(F)c1)[C@H](N)C(=O)N1CC[C@H](F)C1 |
|  | > 100 µM | > 100 µM | 14 µM | 0.77 µM |  |  | COc1ccc([C@H](C)[C@H](N)C(=O)N2CC[C@H](F)C2)cc1 |
|  |  | > 100 µM | 10 µM | 0.58 µM |  |  | C[C@@H](c1ccc(-c2cncnc2)cc1)[C@H](N)C(=O)N1CC[C@H](F)C1 |
|  | > 100 µM |  | 23 µM |  |  |  | C[C@@H](c1ccc(F)cc1)[C@H](N)C(=O)N1CC[C@H](F)C1 |
|  | > 100 µM | > 100 µM | 7.8 µM | 3.7 µM |  |  | C[C@@H](c1cc(F)cc(F)c1)[C@H](N)C(=O)N1CC[C@H](F)C1 |
|  | > 100 µM | > 100 µM | 19 µM | 1.1 µM |  |  | C[C@@H](c1ccccc1F)[C@H](N)C(=O)N1CC[C@H](F)C1 |
|  |  | > 100 µM | 3 µM | 0.12 µM |  |  | C[C@@H](c1ccc(-c2ccccc2)cc1)[C@H](N)C(=O)N1CC[C@H](F)C1 |
|  | > 100 µM | > 100 µM | 1.3 µM |  |  |  | C[C@@H](c1ccc(-c2cc(F)ccc2F)cc1)[C@H](N)C(=O)N1CC[C@H](F)C1 |
|  |  |  | 2 µM | 0.06 µM |  |  | C[C@@H](c1ccc(-c2ccc(F)c(F)c2)cc1)[C@H](N)C(=O)N1CC[C@H](F)C1 |
|  | > 100 µM | > 100 µM | 1.1 µM | 0.1 µM |  |  | C[C@@H](c1ccc(-c2ccccc2F)cc1)[C@H](N)C(=O)N1CC[C@H](F)C1 |
|  | > 100 µM | > 100 µM | 2.5 µM | 0.037 µM |  |  | C[C@@H](c1ccc(-c2ccc(F)cc2F)cc1)[C@H](N)C(=O)N1CC[C@H](F)C1 |
|  | > 100 µM | > 100 µM | 46 µM | 4.2 µM |  |  | C[C@@H](c1ccc(F)cc1Cl)[C@H](N)C(=O)N1CC[C@H](F)C1 |
|  | > 100 µM | > 100 µM | 36 µM | 3.6 µM |  |  | C[C@@H](c1ccc(S(C)(=O)=O)cc1)[C@H](N)C(=O)N1CC[C@H](F)C1 |
|  | > 100 µM | > 100 µM | 3.1 µM | 0.11 µM |  |  | C[C@@H](c1ccc(-c2ccncc2)cc1)[C@H](N)C(=O)N1CC[C@H](F)C1 |
|  | > 100 µM | > 100 µM | 59 µM | 1.4 µM |  |  | C[C@@H](c1ccccc1)[C@H](N)C(=O)N1CC[C@H](F)C1 |
|  |  |  | 2 µM | 0.24 µM |  |  | C[C@@H](c1ccc(-c2cc(F)cc(F)c2)cc1)[C@H](N)C(=O)N1CC[C@H](F)C1 |
|  | > 100 µM | > 100 µM | 0.72 µM | 1.5 µM |  |  | C[C@@H](c1ccc(-c2nccs2)cc1)[C@H](N)C(=O)N1CC[C@H](F)C1 |
|  | > 100 µM | > 100 µM | 4.6 µM | 0.24 µM |  |  | C[C@@H](c1ccc(-c2ccccn2)cc1)[C@H](N)C(=O)N1CC[C@H](F)C1 |

Reference: ChEMBL document CHEMBL1139555, “Discovery of potent and selective phenylalanine based dipeptidyl peptidase IV inhibitors” (Bioorg Med Chem Lett, 2005)
